Results: patent publication US5198457A, “Treatment of hyperthyroidism with 1,3-dihydro-1[2-(2-thienyl)alkyl]-2H-imidazole-2-thiones” (Merrell Dow Pharmaceuticals Inc., priority 1992, dated 1993)

Columns and labels:
[1] = system: thyroid follicular epithelium; assay: Two week rat study, oral gavage: thyroid findings; type: in vivo, Sprague-Dawley rats
Protocol: The activity of the compounds of Formula I is illustrated through their effects on thyroid function in the rat.
(§1) Sprague-Dawley rats were divided into groups of five males and five females and administered daily by gavage 0, 50, 100, 200, 300, 500, 700 and 1,000 mg/kg/day for two weeks under both fed and fasted conditions. Behavior of the rats was monitored daily while body weight, food consumption and clinical signs were measured weekly. At the termination of the study, rats were bled for clinical chemistry and hematology determinations. After bleeding, rats were sacrificed and necropsied in order that organs could be examined grossly, and tissue specimens were collected for subsequent microscopic examination.

[2] = Two week rat study: clinical chemistry (cholesterol); type: in vivo, Sprague-Dawley rats
Protocol: as §1

thyroid [3] = assay: Three month rat study, gavage: thyroid histology and thyroid weight; type: in vivo, Sprague-Dawley rats; settings: for Thyroid follicular cell hyperplasia (incidence), treatment: up to three months, gavage; for Thyroid weight, treatment / Thyroid weight, recovery: mean ± standard deviation; for Thyroid weight, recovery: one month recovery
Protocol: (§2) Collectively, these findings are consistent with drug-induced inhibition of thyroid function and resulting morphological alterations due to compensatory stimulation of increased TSH due to decreased secretion of thyroid hormones.
(§3) For this study Sprague-Dawley rats were divided into groups of 33 males and 33 females and administered by gavage 0, 50 and 200 mg/kg/day of 1,3-dihydro-1-[2-(2-thienyl)ethyl]-2H-imidazole-2-thione in 0.5% aqueous methylcellulose for up to three months. Additional pharmacokinetic study of drug levels was performed by bleeding 3 males and 3 females from each group either 2 or 24 hours posdosing on treatment days 1, 45 and 87. Study parameters included daily observation of behavior; weekly observations of physical condition, food consumption and body weight; and terminal ophthalmoscopic evaluation, serum clinical chemistry, hematology, organ weights, and gross and microscopic tissue examinations.

[4] = Three month rat study, gavage: serum cholesterol; type: in vivo, Sprague-Dawley rats
Protocol: as §2, §3

[5] = system: dopamine beta-hydroxylase; settings: relative to methimazole analogs with larger 1-alkyl substituents; Fuller et al. 1977; cited from earlier work
thyroid [6] = settings: Fuller et al. 1977; cited from earlier work
[7] = 200 mg/kg/day, female, P < 0.01 compared to controls

For `S=c1[nH]ccn1CCc1cccs1` [1,3-Dihydro-1-[2-(2-thienyl)ethyl]-2H-imidazole-2-thione], the “Thyroid follicular epithelium findings, lower doses” value ([1]; 100-300 mg/kg/day males, 50-300 mg/kg/day females, two weeks) was “mainly hypertrophic with minimal colloid involution”, the “Thyroid follicular cell findings, high doses” value ([1]; >500 mg/kg/day, two weeks) was “diffuse hyperplasia, hypertrophy, increased mitotic FIGURES, and involution or total absence of luminal colloid” and the “Onset of effect on thyroid follicular epithelium” value ([1]; oral, 50 to 700 mg/kg/day) was “three to four”. The “Effect on thyroid follicular epithelium” value ([1]; oral, 50 to 700 mg/kg/day, two weeks) was “striking effects on the thyroid follicular epithelium”, the “Effect on thyroid gland at high doses” value ([1]; rat, high doses) was “lesions in the thyroid gland and associated clinicopathological findings that indicate thyroid hormone synthesis is reduced or inhibited” and the “Cholesterol level, % of pretest values” ([2]; females, doses >200 mg/kg/day) was “approximately 135%”. The “Cholesterol level, % of pretest values” ([2]; males, doses >500 mg/kg/day) was “approximately 135%”, the “Thyroid follicular cell hyperplasia (incidence), treatment” value (thyroid [3]; 50 mg/kg/day, female) was 7/10 and the “Thyroid weight, treatment” value (thyroid [3]; 50 mg/kg/day, female, P < 0.01 compared to controls) was “.03 ± .01 gm”. The “Thyroid follicular cell hyperplasia (incidence), recovery” value (thyroid [3]; 50 mg/kg/day, female, one month recovery from dosing) was 0/5, the “Thyroid weight, recovery” value (thyroid [3]; 50 mg/kg/day, female) was “.02 ± .00 gm” and the “Thyroid follicular cell hyperplasia (incidence), treatment” value (thyroid [3]; 50 mg/kg/day, male) was 10/10. The “Thyroid weight, treatment” value (thyroid [3]; 50 mg/kg/day, male, P < 0.01 compared to controls) was “.04 ± .01 gm”, the “Thyroid follicular cell hyperplasia (incidence), recovery” value (thyroid [3]; 50 mg/kg/day, male, one month recovery from dosing) was 0/5 and the “Thyroid weight, recovery” value (thyroid [3]; 50 mg/kg/day, male) was “.03 ± .01 gm”. The “Thyroid follicular cell hyperplasia (incidence), treatment” value (thyroid [3]; 200 mg/kg/day, female) was 10/10, the “Thyroid weight, treatment” value (thyroid [3]; [7]) was “.06 ± .03 gm” and the “Thyroid follicular cell hyperplasia (incidence), recovery” value (thyroid [3]; 200 mg/kg/day, female, one month recovery from dosing) was 8/10. The “Thyroid weight, recovery” value (thyroid [3]; [7]) was “.03 ± .01 gm”, the “Thyroid follicular cell hyperplasia (incidence), treatment” value (thyroid [3]; 200 mg/kg/day, male) was 10/10 and the “Thyroid weight, treatment” value (thyroid [3]; 200 mg/kg/day, male, P < 0.01 compared to controls) was “.14 ± .08 gm”. For the same compound, the “Thyroid follicular cell hyperplasia (incidence), recovery” value (thyroid [3]; 200 mg/kg/day, male, one month recovery from dosing) was 0/5, the “Thyroid weight, recovery” value (thyroid [3]; 200 mg/kg/day, male, P < 0.05 compared to controls) was “.05 ± .01 gm” and the “Reversibility of thyroid findings” value (thyroid [3]; one month recovery from dosing) was “nearly completely reversible”. For the same compound, the “Thyroid effects, three month study” value (thyroid [3]; single daily doses of 50 and 200 mg/kg/day) was “profound thyroid effects characterized by thyroid follicular cell hyperplasia, increased thyroid weights and hypercholesteremia”, the “Serum cholesterol, treatment” value ([4]; 50 mg/kg/day, female (control 71)) was 88 mg/dL and the “Serum cholesterol, recovery” value ([4]; 50 mg/kg/day, female, one month recovery (control 66)) was 86 mg/dL. The “Serum cholesterol, treatment” value ([4]; 50 mg/kg/day, male (control 63)) was 81 mg/dL, the “Serum cholesterol, recovery” value ([4]; 50 mg/kg/day, male, one month recovery (control 75)) was 74 mg/dL and the “Serum cholesterol, treatment” value ([4]; 200 mg/kg/day, female (control 71)) was 105 mg/dL. For the same compound, the “Serum cholesterol, recovery” value ([4]; 200 mg/kg/day, female, one month recovery (control 66)) was 76 mg/dL, the “Serum cholesterol, treatment” value ([4]; 200 mg/kg/day, male (control 63)) was 97 mg/dL and the “Serum cholesterol, recovery” value ([4]; 200 mg/kg/day, male, one month recovery (control 75)) was 76 mg/dL.
For `Sc1nccn1C1CCCCC1` [1-cyclohexyl-2-mercaptoimidazole (CHMI), 1-cyclohexyl-2-mercaptoimidazole], the DBH-inhibiting activity [5] is listed as “greatest DBH inhibition” and the Antithyroid activity (thyroid [6]) is listed as “only slight antithyroid activity”.
In the case of `Cn1ccnc1S` [methimazole, 1-methyl-2-mercaptoimidazole], the DBH-inhibiting activity [5] is given as “less pronounced than that of methimazole analogs bearing larger 1-alkyl substituents”.
